Laboratory results: patent US5073493A, “Monoclonal antibody NKY13” (Ikuo Yamashina, priority 1987, dated 1991)

Assays:
[1] = molecular target: binding of the NKY13 to G-50I; test: Inhibition of the binding of NKY13 to G-50I by sugar chains; set-up: species or system mouse; details: inhibition of binding of NKY13 to G-50I by the sugar chain
Protocol: Bovine serum albumin (1%) is added to wells of poly(vinyl chloride) on which, through the mediation of polylysine and glutaraldehyde, is immobilized mucin-type glycopeptide (G-50I) that is isolated from human intestinal cancer cells SW1116 or LS180. After allowing it to stand for 1 hr, the wells are washed, and then a monoclonal antibody NKY13 is added thereto and allowed to react overnight. After washing the wells, Protein A labelled with ^125 I is added, which is allowed to react for 2 hr. After washing the wells, the affinity of NKY13 is measured, taking as index the radioactivity of ^125 I combined with the well.
(§1) Structure of sugar chains recognized by monoclonal antibody NKY13 was investigated on the basis of the inhibition of the binding of the NKY13 to G-50I by the following sugar chains according to the above method. The same test was performed on NS19-9.

[2] = molecular target: NS19-9; test: Inhibition of NS19-9 binding by sugar chains (same test performed on NS19-9); details: read-out: 50% INHIBITION (μM) NS19-9
Protocol: as §1

IC50 [1] | IC50 [2] | SMILES
1.86 µM | 11.1 µM | CC(=O)N[C@H]1[C@H](O[C@H]2[C@@H](O)[C@@H](CO)O[C@@H](O[C@H]3[C@H](O)[C@@H](O)C(O)O[C@@H]3CO)[C@@H]2O)O[C@H](CO)[C@@H](O[C@@H]2O[C@@H](C)[C@@H](O)[C@@H](O)[C@@H]2O)[C@@H]1O[C@@H]1O[C@H](CO)[C@H](O)[C@H](O[C@]2(C(=O)O)C[C@H](O)[C@@H](NC(C)=O)[C@H]([C@H](O)[C@H](O)CO)O2)[C@H]1O (stereo partly shown)
320 µM | 3550 µM | CC(=O)N[C@H]1[C@H](O[C@H]2[C@@H](O)[C@@H](CO)O[C@@H](O[C@H]3[C@H](O)[C@@H](O)C(O)O[C@@H]3CO)[C@@H]2O)O[C@H](CO[C@]2(C(=O)O)C[C@H](O)[C@@H](NC(C)=O)[C@H]([C@H](O)[C@H](O)CO)O2)[C@@H](O)[C@@H]1O[C@@H]1O[C@H](CO)[C@H](O)[C@H](O[C@]2(C(=O)O)C[C@H](O)[C@@H](NC(C)=O)[C@H]([C@H](O)[C@H](O)CO)O2)[C@H]1O (stereo partly shown)
320 µM | 3550 µM | CC(=O)N[C@H]1[C@H](O[C@H]2[C@@H](O)[C@@H](CO)O[C@@H](O[C@H]3[C@H](O)[C@@H](O)C(O)O[C@@H]3CO)[C@@H]2O)O[C@H](CO)[C@@H](O)[C@@H]1O[C@@H]1O[C@H](CO)[C@H](O)[C@H](O[C@]2(C(=O)O)C[C@H](O)[C@@H](NC(C)=O)[C@H]([C@H](O)[C@H](O)CO)O2)[C@H]1O (stereo partly shown)
> 10000 µM | > 10000 µM | CC(=O)N[C@H]1[C@H](O[C@H]2[C@@H](O)[C@@H](CO)O[C@@H](O[C@H]3[C@H](O)[C@@H](O)C(O)O[C@@H]3CO)[C@@H]2O)O[C@H](CO[C@]2(C(=O)O)C[C@H](O)[C@@H](NC(C)=O)[C@H]([C@H](O)[C@H](O)CO)O2)[C@@H](O)[C@@H]1O[C@@H]1O[C@H](CO)[C@H](O)[C@H](O)[C@H]1O (stereo partly shown)
> 10000 µM | 2320 µM | CC(=O)N[C@H]1[C@H](O[C@H]2[C@@H](O)[C@@H](CO)O[C@@H](O[C@H]3[C@H](O)[C@@H](O)C(O)O[C@@H]3CO)[C@@H]2O)O[C@H](CO)[C@@H](O[C@@H]2O[C@@H](C)[C@@H](O)[C@@H](O)[C@@H]2O)[C@@H]1O[C@@H]1O[C@H](CO)[C@H](O)[C@H](O)[C@H]1O (stereo partly shown)
> 10000 µM | > 10000 µM | CC(=O)N[C@H]1[C@H](O[C@H]2[C@@H](O)[C@@H](CO)O[C@@H](O[C@H]3[C@H](O)[C@@H](O)C(O)O[C@@H]3CO)[C@@H]2O)O[C@H](CO)[C@@H](O[C@@H]2O[C@@H](C)[C@@H](O)[C@@H](O)[C@@H]2O)[C@@H]1O[C@@H]1O[C@H](CO)[C@H](O)[C@H](O)[C@H]1O[C@@H]1O[C@@H](C)[C@@H](O)[C@@H](O)[C@@H]1O (stereo partly shown)
> 10000 µM | > 10000 µM | CC(=O)N[C@H]1[C@H](O[C@H]2[C@@H](O)[C@@H](CO)O[C@@H](O[C@H]3[C@H](O)[C@@H](O)C(O)O[C@@H]3CO)[C@@H]2O)O[C@H](CO)[C@@H](O)[C@@H]1O[C@@H]1O[C@H](CO)[C@H](O)[C@H](O)[C@H]1O (stereo partly shown)
> 10000 µM | > 10000 µM | CC(=O)N[C@H]1[C@H](O[C@H]2[C@@H](O)[C@@H](CO)O[C@@H](O[C@H]3[C@H](O)[C@@H](O)C(O)O[C@@H]3CO)[C@@H]2O)O[C@H](CO)[C@@H](O[C@@H]2O[C@H](CO)[C@H](O)[C@H](O)[C@H]2O)[C@@H]1O[C@@H]1O[C@@H](C)[C@@H](O)[C@@H](O)[C@@H]1O (stereo partly shown)
> 10000 µM | 14000 µM | C[C@@H]1OC(O)[C@@H](O)[C@H](O)[C@@H]1O (stereo partly drawn) [L-Fucose]
9000 µM | > 10000 µM | CC(=O)N[C@H]1[C@H]([C@H](O)[C@H](O)CO)OC(O)(C(=O)O)C[C@@H]1O (stereo partly shown) [NeuAc]
9000 µM | > 10000 µM | O=C(CO)N[C@H]1[C@H]([C@H](O)[C@H](O)CO)OC(O)(C(=O)O)C[C@@H]1O (stereo partly shown) [NeuGc]
